Experimental data from patent publication US10774053B2, “HIV protease inhibitors” (Gilead Sciences, Inc., priority 2017, dated 2020).
Read-outs that look alike come from different tables or passages of the source.

Experiments:
[1] = biological target: recombinant HIV protease (Human immunodeficiency virus type 1 group M subtype B (isolate HXB2) (HIV-1), UniProt P04585); experiment: biochemical; type: biochemical
Protocol: HIV Protease Enzyme Inhibition (PI) Activity
Inhibitor potency against HIV protease was measured using an enzymatic assay with a fluorogenic readout. To a reaction buffer containing 100 mM ammonium acetate at pH 5.3, 100 mM NaCl, 1 mM EDTA, 1 mM DTT, 0.25 mg/mL BSA and 1% DMSO were added 10 nM of recombinant HIV protease (concentration based on protein monomer) and test compound at one of various concentrations. […] The total volume of the assay solution was 100 μL. […] The slopes of the progress curves were the measure of reaction rates. Reaction rates were plotted as a function of inhibitor concentration, and the data were fit with a four-parameter logistic fit using Graphpad PRISM software to yield IC50 values.

[2] = test system: HIV-1 (IIIB) in MT-4 cells; experiment: microbe, parasite or virus in culture; type: cell-based; settings: HIV-1, read-out: MT4 EC50
[3] = Liver microsomal stability, human liver microsomes; settings: human liver microsomes 0.5 mg/mL, 1 uM compound, NADPH-regenerating system, 37° C.
[4] = recombinant HIV protease, fluorogenic enzymatic assay, read-out: HIV PI IC50

With CC(C)(C)C[C@]1(c2ccc(-c3cnn(C4CC4)c3)cc2)NC(=N)N([C@H](COC(=O)NC2(C(F)(F)F)CC2)c2ccc(Cl)c(-c3ncnn3C(F)F)c2)C1=O [Compound 164] as the compound, how does the IC50 [1, 4] read?
Its IC50 is 2.6 nM.

What about the EC50 ([2]; MT-4 cells) of the same compound?
Its EC50 is 16.5 nM.

Which results are given for CC(C)(C)C[C@]1(c2ccc(-c3ccn(C4CC4)n3)cc2)NC(=N)N([C@H](COC(=O)NC2(C(F)(F)F)CC2)c2ccc(Cl)c(-n3ncnc3C(F)F)c2)C1=O [Compound 214]?
IC50 [1]: 3 nM; EC50 ([2]; Human immunodeficiency virus 1, IIIB, MT4, MT-4 cells): 11.5 nM

Which IC50 [1, 4] does the source give for CC(C)(C)C[C@]1(c2ccc(-c3cnn(C(F)F)c3)cc2)NC(=N)N([C@H](COC(=O)NC2(C(F)(F)F)CC2)c2ccc(F)c(-n3ncnc3C(F)F)c2)C1=O [Compound 380] here?
The IC50 was 3.5 nM.

What about the “Half-life in human liver microsomes” value [3] of the same compound?
Its value is no less than 6.58 h.

And the EC50 ([2]; MT-4 cells)?
Its EC50 is 29.2 nM.
